CC1(C)NC(=O)NC1=O
solubility (mole fraction)
Details	283.15 K	288.15 K	293.15 K	298.15 K	303.15 K	308.15 K	313.15 K	318.15 K	323.15 K
in acetonitrile	0.0123	0.0144	0.017	0.0196	0.0227	0.026	0.0294	0.0345	0.039
in ethanol	0.0412	0.0465	0.0526	0.0592	0.0672	0.0757	0.0846	0.0961	0.108
in ethyl acetate	0.0118	0.0133	0.0154	0.0175	0.0191	0.0213	0.0236	0.026	0.0289
in isobutanol	0.0242	0.0284	0.0328	0.038	0.0439	0.0509	0.0577	0.0672	0.0757
in isopropanol	0.0366	0.042	0.0481	0.0554	0.063	0.0714	0.0803	0.0914	0.102
in methanol	0.0647	0.0719	0.0806	0.0896	0.0993	0.111	0.122	0.135	0.15
in n-butanol	0.026	0.0296	0.0338	0.0389	0.0447	0.0509	0.0574	0.0661	0.0737
in n-pentanol	0.0236	0.0267	0.0305	0.0348	0.0398	0.0453	0.0514	0.0583	0.0641
in n-propanol	0.0326	0.0373	0.0424	0.0476	0.0543	0.0616	0.0687	0.0788	0.0881
in n-propyl acetate	0.00923	0.0105	0.0118	0.0138	0.0155	0.0172	0.0193	0.0215	0.0234
in sec-butanol	0.0384	0.0449	0.0505	0.058	0.0655	0.074	0.083	0.093	0.105
in water	0.0163	0.0186	0.0213	0.0242	0.0279	0.0326	0.038	0.0458	0.0532

Reference: BigSolDB 2.1
